Experimental data taken from patent US8354402B2, “Polyarylcarboxamides useful as lipid lowering agents” (Janssen Pharmaceutica N.V., priority 2000, dated 2013).
Structures can show the parent of a compound that is named as a salt.

test system: ApoB secretion, HepG2 cells; test: Quantification of the secretion of ApoB (HepG2 cells, immunoprecipitation, scintillation counting); format: cell-based; conditions: 24 hours of incubation, listed as 37
In short: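 HepG2 cells in MEM Rega 3 with 10% FCS were treated at 70% confluency with compound (DMSO 0.4% final) for 24 h. Medium ApoB was immunoprecipitated with sheep anti-apoB then rabbit anti-sheep antibody (24 h each, 8° C), and pellet radioactivity was counted by liquid scintillation to give IC50.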

Row | SMILES | pIC50
1 | COC(=O)C(c1ccccc1)C1CCN(c2ccc(NC(=O)c3ccccc3-c3ccc(C(F)(F)F)cc3)cc2)CC1 (stereo not drawn) [Co. No. 37, methyl α-phenyl-1-[4-[[[4′-(trifluoromethyl)[1,1′-biphenyl]-2-yl]carbonyl]amino]phenyl]-4-piperidineacetate trifluoroacetate (1:1)] | 7.507

same assay, conditions: 24 hours of incubation, listed as 238

Row | SMILES | pIC50
2 | COC(=O)C(c1ccccc1)C1CCN(c2ccc(NC(=O)c3ccccc3-c3ccc(C(C)(C)C)cc3)cc2)CC1 (stereo not shown) [Co. No. 238] | 7.824

same assay, conditions: 24 hours of incubation, listed as 240

Row | SMILES | pIC50
3 | COC(=O)C(c1ccccc1)N1CCN(c2ccc(NC(=O)c3ccccc3-c3ccc(C(F)(F)F)cc3)cc2)CC1 (stereo not shown) [Co. No. 240] | 7.982

same assay, conditions: Homo sapiens, 24 hours of incubation

Row | SMILES | IC50 [nM]
4 | CCNC(=O)N(c1ccccc1)C1CCN(c2ccc(NC(=O)c3ccccc3-c3ccc(C(F)(F)F)cc3)cc2)CC1 [Co. No. 252] | 12.2

same assay, conditions: Homo sapiens, HepG2, 24 h, 24 hours of incubation

Row | SMILES | IC50 [nM]
5 | COC(=O)C(c1ccc(Cl)cc1Cl)N1CCN(c2ccc(NC(=O)c3ccccc3-c3ccc(C(F)(F)F)cc3)cc2)CC1 (stereo not shown) [Co. No. 259] | 420
6 | O=C(Nc1ccc(N2CCN(C(C(=O)OCc3ccccc3)c3ccccc3)CC2)cc1)c1ccccc1-c1ccc(C(F)(F)F)cc1 (stereo not shown) [Co. No. 142] | 114
7 | O=C(Nc1ccc(C2CCN(C(C(=O)NCc3ccccc3)c3ccccc3)CC2)cc1)c1ccccc1-c1ccc(C(F)(F)F)cc1 (stereo not shown) [Co. No. 79] | 50
8 | COC(=O)C(c1ccccc1)N1CCN(c2ccc(NC(=O)c3cc(C)ccc3-c3ccc(C(F)(F)F)cc3)cc2)CC1 (stereo not shown) [Co. No. 189] | 105
9 | O=C(Nc1ccc(C2CCN(C(C(=O)Nc3ccccc3)c3ccccc3)CC2)cc1)c1ccccc1-c1ccccc1 (stereo not shown) [Co. No. 162] | 96.6
10 | O=C(Nc1ccc(N2CCN(C(C(=O)Nc3ccccc3)c3ccccc3)CC2)cc1)c1ccccc1-c1ccc(C(F)(F)F)cc1 (stereo not shown) [Co. No. 140] | 20.3
11 | O=C(Nc1ccc(N2CCC(C(C(=O)OCc3ccccc3)c3ccccc3)CC2)cc1)c1ccccc1-c1ccc(C(F)(F)F)cc1 (stereo not shown) [Co. No. 174] | 92.3
12 | COC(=O)C(c1ccccc1)N1CCN(c2ccc(NC(=O)c3cccc(C)c3-c3ccc(C(F)(F)F)cc3)cc2)CC1 (stereo not shown) [Co. No. 190] | 6.41
13 | CCNC(=O)C(c1ccccc1)C1CCN(c2ccc(NC(=O)c3ccccc3-c3ccccc3C)cc2)CC1 (stereo not shown) [Co. No. 85, N-[4-[4-[2-(ethylamino)-2-oxo-1-phenylethyl]-1-piperidinyl]phenyl]-2′-methyl-[1,1′-biphenyl]-2-carboxamide] | 129
14 | CCCNC(=O)C(c1ccccc1)C1CCN(c2ccc(NC(=O)c3ccccc3-c3ccc(F)cc3)cc2)CC1 (stereo not shown) [Co. No. 44] | 1040
15 | CCCNC(=O)C(c1ccccc1)C1CCN(c2ccc(NC(=O)c3ccccc3-c3ccc(F)cc3F)cc2)CC1 (stereo not shown) [Co. No. 84, 2′,4′-difluoro-N-[4-[4-[2-oxo-1-phenyl-2-(propylamino)ethyl]-1-piperidinyl]phenyl]-[1,1′-biphenyl]-2-carboxamide] | 79.4
16 | COC(=O)C(c1ccccc1)C1CCN(c2ccc(NC(=O)c3ccccc3-c3ccc(CC(C)C)cc3)cc2)CC1 (stereo not shown) [Co. No. 233] | < 30
17 | COC(=O)C(c1ccccc1)N1CCN(c2ccc(NC(=O)c3ccccc3-c3ccc(C(F)(F)F)cc3)c(F)c2)CC1 (stereo not shown) [Co. No. 212] | < 30
18 | Nc1cccc(-c2ccccc2C(=O)Nc2ccc(N3CCC(C(C(=O)NCc4ccccc4)c4ccccc4)CC3)cc2)c1 (stereo not shown) [Co. No. 98] | 57.9
19 | O=C(Nc1ccc(N2CCC(C(C(=O)Nc3ccccc3)c3ccccc3)CC2)cc1)c1ccccc1-c1cccc(Cl)c1 (stereo not shown) [Co. No. 108] | 188
20 | COC(=O)C(c1ccccc1)N1CC=C(c2ccc(NC(=O)c3ccccc3-c3ccccc3)cc2)CC1 (stereo not shown) [Co. No. 156] | 122
21 | COC(=O)C(c1ccccc1)N1CCN(c2ccc(NC(=O)c3ccc(C)cc3-c3ccc(C(F)(F)F)cc3)cc2)CC1 (stereo not shown) [Co. No. 184] | 3.13
22 | O=C(Nc1ccc(N2CCC(C(C(=O)NCc3ccccc3)c3ccccc3)CC2)cc1)c1ccccc1OCc1ccccc1 (stereo not shown) [Co. No. 8] | 60.1
23 | CCCCNC(=O)C(c1ccccc1)N1CCC(c2ccc(NC(=O)c3ccccc3-c3ccc(C(F)(F)F)cc3)cc2)CC1 (stereo not shown) [Co. No. 73] | 6.08

Row | SMILES | IC50 [nM]
24 | O=C(Nc1ccc(N2CCC(C(C(=O)Nc3ccccc3)c3ccccc3)CC2)cc1)c1ccccc1-c1ccc(C(F)(F)F)cc1 (stereo not shown) [Co. No. 36] | ≤ 30
25 | Cc1ccccc1-c1ccccc1C(=O)Nc1ccc(N2CCC(C(C(=O)Nc3ccccc3)c3ccccc3)CC2)cc1 (stereo not shown) [Co. No. 107] | 292
26 | CCCNC(=O)C(c1ccccc1)C1CCN(c2ccc(NC(=O)c3ccccc3Cc3ccccc3)cc2)CC1 (stereo not shown) [Co. No. 20] | 989
27 | COC(=O)C(c1ccccc1)N1CCN(c2ccc(NC(=O)c3ccccc3-c3ccc(C(F)(F)F)cc3)cc2C(F)(F)F)CC1 (stereo not shown) [Co. No. 210] | 483
28 | CCCNC(=O)C(c1ccccc1)C1CCN(c2ccc(NC(=O)c3ccccc3-c3ccc(Cl)c(Cl)c3)cc2)CC1 (stereo not shown) [Co. No. 83] | 43.3
29 | C=CCNC(=O)C(c1ccccc1)N1CCC(c2ccc(NC(=O)c3ccccc3-c3ccc(C(F)(F)F)cc3)cc2)CC1 (stereo not shown) [Co. No. 71] | 10.3
30 | CCNC(=O)C(c1ccccc1)C1CCN(c2ccc(NC(=O)c3ccccc3-c3ccc(Cl)cc3)cc2)CC1 (stereo not shown) [Co. No. 91] | 8.69
31 | Cc1cccc(-c2ccccc2C(=O)Nc2ccc(N3CCC(C(C(=O)Nc4ccccc4)c4ccccc4)CC3)cc2)c1 (stereo not shown) [Co. No. 112] | 434
32 | O=C(Nc1ccc(N2CCC(C(C(=O)NCc3ccccc3)c3ccccc3)CC2)cc1)c1ccccc1C(=O)c1ccccc1 (stereo not shown) [Co. No. 5] | 158
33 | CCNC(=O)C(c1ccccc1)C1CCN(c2ccc(NC(=O)c3ccccc3-c3ccc(OC)cc3)cc2)CC1 (stereo not shown) [Co. No. 93] | 72.3
34 | CCOC(=O)C(c1ccccc1)N1CCCN(c2ccc(NC(=O)c3ccccc3-c3ccc(C(F)(F)F)cc3)cc2)CC1 (stereo not shown) [Co. No. 120] | 357
35 | COC(=O)C(c1ccccc1)C1CCN(c2ccc(NC(=O)c3cccc(C)c3-c3ccc(CC(C)C)cc3)cc2)CC1 (stereo not shown) [Co. No. 236] | 21.7
36 | CCNC(=O)C(c1ccccc1)N1CCN(c2ccc(NC(=O)c3ccccc3-c3ccc(C(F)(F)F)cc3)cc2Cl)CC1 (stereo not shown) [Co. No. 213] | < 30
37 | COC(=O)C(c1ccccc1)N1CCN(c2ccc(NC(=O)c3cc(OC)ccc3-c3ccc(C(F)(F)F)cc3)cc2)CC1 (stereo not shown) [Co. No. 186] | 200
38 | C#CCOC(=O)C(c1ccccc1)C1CCN(c2ccc(NC(=O)c3ccccc3-c3ccc(C(F)(F)F)cc3)cc2)CC1 (stereo not shown) [Co. No. 248] | 68.5
39 | COC(=O)C(c1ccccc1)N1CCN(c2ccc(NC(=O)c3cc(Cl)ccc3-c3ccc(C(F)(F)F)cc3)cc2)CC1 (stereo not shown) [Co. No. 191] | 7.19
40 | O=C(Nc1ccc(N2CCN(CC(C(=O)NCC(F)(F)F)c3ccccc3)CC2)cc1)c1ccccc1-c1ccc(C(F)(F)F)cc1 (stereo not shown) [Co. No. 66] | 79.6
41 | O=C(Nc1ccc(N2CCC(C(C(=O)Nc3ccccc3)c3ccccc3)CC2)cc1)c1ccccc1-c1ccccc1Cl (stereo not shown) [Co. No. 115] | 1710
42 | COC(=O)C(c1ccccc1)N1CCN(c2ccc(NC(=O)c3ccc(F)cc3-c3ccc(C(F)(F)F)cc3)cc2)CC1 (stereo not shown) [Co. No. 185] | 48.8

Row | SMILES | IC50 [nM]
43 | CCNC(=O)C(c1ccccc1)N1CCN(c2ccc(NC(=O)c3ccccc3-c3ccc(C(F)(F)F)cc3)c(F)c2)CC1 (stereo not shown) [Co. No. 219] | 78.5
44 | CCNC(=O)C(c1ccccc1)C1CCN(c2ccc(NC(=O)c3ccccc3-c3ccc(C)cc3)cc2)CC1 (stereo not shown) [Co. No. 94] | 44.1
45 | CC(C)(C)c1ccc(-c2ccccc2C(=O)Nc2ccc(N3CCC(C(C(=O)NCc4ccccc4)c4ccccc4)CC3)cc2)cc1 (stereo not shown) [Co. No. 53] | 1.84
46 | C=CCOC(=O)C(c1ccccc1)N1CCN(c2ccc(NC(=O)c3ccccc3-c3ccccc3)cc2)CC1 (stereo not shown) [Co. No. 146] | 341
47 | O=C(Nc1ccc(N2CCC(C(C(=O)Nc3ccccc3)c3ccccc3)CC2)cc1)c1cccc2c1-c1ccccc1C2 (stereo not shown) [Co. No. 129] | 2770
48 | CCCNC(=O)C(c1ccccc1)C1CCN(c2ccc(NC(=O)c3cccc4c3-c3ccccc3C4)cc2)CC1 (stereo not shown) [Co. No. 12] | 231
49 | C=CCOC(=O)C(c1ccccc1)N1CCC(c2ccc(NC(=O)c3ccccc3-c3ccccc3)cc2)CC1 (stereo not shown) [Co. No. 154] | 2320
50 | O=C(Nc1ccc(N2CCN(C(C(=O)NCc3ccccc3)c3ccccc3)CC2)cc1)c1ccccc1-c1ccccc1 (stereo not shown) [Co. No. 141] | 25.1
51 | CCCNC(=O)C(c1ccccc1)C1CCN(c2ccc(NC(=O)c3ccccc3OCc3ccccc3)cc2)CC1 (stereo not shown) [Co. No. 18] | 206
52 | O=C(Nc1ccc(N2CCC(C(C(=O)Nc3ccccc3)c3ccccc3)CC2)cc1)c1ccccc1Oc1ccccc1 (stereo not shown) [Co. No. 34] | 1550
53 | CCNC(=O)C(c1ccccc1)N1CCN(c2ccc(NC(=O)c3cc(C)ccc3-c3ccc(C(F)(F)F)cc3)cc2)CC1 (stereo not shown) [Co. No. 198] | 73.1
54 | CCCNC(=O)C(c1ccccc1)C1CCN(c2ccc(NC(=O)c3ccccc3COc3ccccc3)cc2)CC1 (stereo not shown) [Co. No. 17] | 199
55 | O=C(Nc1ccc(N2CCC(C(C(=O)Nc3ccccc3)c3ccccc3)CC2)cc1)c1ccccc1-c1ccc(Cl)cc1 (stereo not shown) [Co. No. 113] | 115
56 | O=C(Nc1ccc(C2CCN(C(C(=O)OCc3ccccc3)c3ccccc3)CC2)cc1)c1ccccc1-c1ccccc1 (stereo not shown) [Co. No. 153] | 1550
57 | CCC(CC)OC(=O)C(c1ccccc1)C1CCN(c2ccc(NC(=O)c3ccccc3-c3ccc(C(F)(F)F)cc3)cc2)CC1 (stereo not shown) [Co. No. 247] | > 3000
58 | COC(=O)C(c1ccccc1Cl)N1CCN(c2ccc(NC(=O)c3ccccc3-c3ccc(C(F)(F)F)cc3)cc2)CC1 (stereo not shown) [Co. No. 258] | 139
59 | CCNC(=O)C(c1ccccc1)N1CCN(c2ccc(NC(=O)c3ccccc3-c3ccc(C(F)(F)F)cc3)cc2C)CC1 (stereo not shown) [Co. No. 218] | < 30
60 | COC(=O)C(c1ccccc1)C1CCN(c2ccc(NC(=O)c3cccc(C)c3-c3ccc(C(C)C)cc3)cc2)CC1 (stereo not shown) [Co. No. 235] | < 30
61 | CCc1ccc(-c2c(C)cccc2C(=O)Nc2ccc(N3CCC(C(C(=O)OC)c4ccccc4)CC3)cc2)cc1 (stereo not shown) [Co. No. 234] | < 30
